Experimental data as given in patent US8614223B2, “Pyrimidine hydroxy amide compounds as protein deacetylase inhibitors and methods of use thereof” (Acetylon Pharmaceuticals, Inc., priority 2010, dated 2013).

Tests used:
HDAC6 = HDAC6 (Homo sapiens (Human), UniProt Q9UBN7); details: read-out: HDAC6 IC50
HDAC1 = HDAC1 (Homo sapiens (Human), UniProt Q13547); assay: HDAC enzyme assay, HDAC1; details: for HDAC1 fold over HDAC6 IC50 (selectivity for HDAC6): ratio HDAC1/HDAC6; for IC50: read-out: HDAC1 IC50
Sequence of HDAC1 (Q13547 whole entry): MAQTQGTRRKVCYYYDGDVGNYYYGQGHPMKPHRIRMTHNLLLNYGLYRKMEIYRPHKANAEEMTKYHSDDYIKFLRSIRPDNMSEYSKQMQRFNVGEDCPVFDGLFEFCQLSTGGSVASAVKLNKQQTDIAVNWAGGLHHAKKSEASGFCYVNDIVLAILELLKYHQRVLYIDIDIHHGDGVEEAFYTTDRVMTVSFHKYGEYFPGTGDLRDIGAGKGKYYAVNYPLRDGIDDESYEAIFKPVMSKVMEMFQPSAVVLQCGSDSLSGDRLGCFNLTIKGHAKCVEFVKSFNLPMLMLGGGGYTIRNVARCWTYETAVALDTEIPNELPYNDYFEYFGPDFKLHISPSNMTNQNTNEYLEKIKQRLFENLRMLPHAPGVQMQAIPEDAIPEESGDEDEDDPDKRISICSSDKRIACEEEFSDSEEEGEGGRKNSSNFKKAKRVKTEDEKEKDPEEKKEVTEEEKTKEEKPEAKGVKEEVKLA

HDAC2 = HDAC2 (Homo sapiens (Human), UniProt Q92769); assay: HDAC enzyme assay, HDAC2; details: for HDAC2 fold over HDAC6 IC50 (selectivity for HDAC6): ratio HDAC2/HDAC6; for IC50: read-out: HDAC2 IC50
Sequence of HDAC2 (Q92769 whole entry): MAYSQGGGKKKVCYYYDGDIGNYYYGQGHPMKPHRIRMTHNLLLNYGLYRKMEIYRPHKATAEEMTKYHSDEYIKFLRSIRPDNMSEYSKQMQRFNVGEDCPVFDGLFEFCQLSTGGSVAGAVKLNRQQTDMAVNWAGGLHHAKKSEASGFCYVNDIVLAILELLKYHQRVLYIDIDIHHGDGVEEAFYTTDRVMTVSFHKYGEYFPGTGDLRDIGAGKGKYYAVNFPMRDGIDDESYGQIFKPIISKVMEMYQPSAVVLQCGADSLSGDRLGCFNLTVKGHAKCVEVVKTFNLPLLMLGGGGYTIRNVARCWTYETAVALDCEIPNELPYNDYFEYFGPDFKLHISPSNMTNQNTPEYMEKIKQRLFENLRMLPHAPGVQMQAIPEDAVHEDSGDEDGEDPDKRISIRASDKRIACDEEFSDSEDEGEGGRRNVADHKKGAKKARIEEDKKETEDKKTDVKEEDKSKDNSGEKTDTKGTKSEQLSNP

HDAC3 = HDAC3 (Homo sapiens (Human), UniProt O15379); assay: HDAC enzyme assay, HDAC3; details: for HDAC3 fold over HDAC6 IC50 (selectivity for HDAC6): ratio HDAC3/HDAC6; for IC50: read-out: HDAC3 IC50
Sequence of HDAC3 (O15379 whole entry): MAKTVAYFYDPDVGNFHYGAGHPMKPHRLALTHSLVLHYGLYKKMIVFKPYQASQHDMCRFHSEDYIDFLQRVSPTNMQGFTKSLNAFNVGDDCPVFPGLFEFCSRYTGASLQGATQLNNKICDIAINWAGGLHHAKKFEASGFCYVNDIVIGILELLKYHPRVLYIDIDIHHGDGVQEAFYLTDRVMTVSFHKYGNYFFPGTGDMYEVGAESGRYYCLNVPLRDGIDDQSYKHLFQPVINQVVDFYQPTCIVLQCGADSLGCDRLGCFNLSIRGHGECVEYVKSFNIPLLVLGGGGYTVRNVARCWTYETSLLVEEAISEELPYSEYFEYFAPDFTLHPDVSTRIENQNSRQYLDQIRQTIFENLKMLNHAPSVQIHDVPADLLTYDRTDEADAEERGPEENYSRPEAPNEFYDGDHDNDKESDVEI
Sequence of HDAC3 (Q9Y618 395-489 partner): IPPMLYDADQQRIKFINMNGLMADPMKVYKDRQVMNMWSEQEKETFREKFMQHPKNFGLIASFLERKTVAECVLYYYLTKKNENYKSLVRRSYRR

Sequence of HDAC6 (Q9UBN7 whole entry): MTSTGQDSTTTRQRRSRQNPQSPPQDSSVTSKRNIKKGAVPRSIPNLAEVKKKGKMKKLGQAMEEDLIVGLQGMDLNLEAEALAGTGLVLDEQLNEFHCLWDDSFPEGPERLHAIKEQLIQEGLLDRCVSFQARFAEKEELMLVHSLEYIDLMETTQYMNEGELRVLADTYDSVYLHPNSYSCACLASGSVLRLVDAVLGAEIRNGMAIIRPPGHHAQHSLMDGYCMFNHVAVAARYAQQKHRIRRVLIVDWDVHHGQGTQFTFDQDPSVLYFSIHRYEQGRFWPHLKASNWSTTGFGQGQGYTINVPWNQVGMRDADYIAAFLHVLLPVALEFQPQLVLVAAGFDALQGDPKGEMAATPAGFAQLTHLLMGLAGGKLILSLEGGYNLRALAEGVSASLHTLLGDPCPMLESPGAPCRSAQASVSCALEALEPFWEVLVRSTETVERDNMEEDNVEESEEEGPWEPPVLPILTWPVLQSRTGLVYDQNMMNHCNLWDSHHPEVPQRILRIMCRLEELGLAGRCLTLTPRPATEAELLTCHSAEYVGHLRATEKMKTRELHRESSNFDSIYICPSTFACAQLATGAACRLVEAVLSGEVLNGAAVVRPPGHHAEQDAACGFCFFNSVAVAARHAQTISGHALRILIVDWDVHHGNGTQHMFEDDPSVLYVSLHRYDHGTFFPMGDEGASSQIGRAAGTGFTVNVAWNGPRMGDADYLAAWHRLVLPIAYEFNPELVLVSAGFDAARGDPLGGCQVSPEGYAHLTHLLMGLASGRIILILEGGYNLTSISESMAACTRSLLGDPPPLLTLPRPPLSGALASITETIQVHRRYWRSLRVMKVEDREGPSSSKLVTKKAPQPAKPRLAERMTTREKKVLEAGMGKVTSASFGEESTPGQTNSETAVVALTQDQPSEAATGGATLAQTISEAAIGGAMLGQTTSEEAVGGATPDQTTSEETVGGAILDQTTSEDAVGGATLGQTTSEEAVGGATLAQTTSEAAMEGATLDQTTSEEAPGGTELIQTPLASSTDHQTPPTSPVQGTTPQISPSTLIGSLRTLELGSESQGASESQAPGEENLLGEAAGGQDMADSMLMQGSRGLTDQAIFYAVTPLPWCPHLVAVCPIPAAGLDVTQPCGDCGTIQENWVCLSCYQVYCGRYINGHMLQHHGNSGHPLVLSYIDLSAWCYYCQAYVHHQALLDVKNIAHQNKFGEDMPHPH

Row | Compound | IC50 (HDAC6) [nM] | HDAC1 fold over HDAC6 IC50 (selectivity for HDAC6) (HDAC1) | IC50 (HDAC1) [nM] | HDAC2 fold over HDAC6 IC50 (selectivity for HDAC6) (HDAC2) | IC50 (HDAC2) [nM] | HDAC3 fold over HDAC6 IC50 (selectivity for HDAC6) (HDAC3) | IC50 (HDAC3) [nM]
1 | O=C(NO)c1cnc(NCc2ccc(-c3ccccc3)cc2)nc1 [Compound 107] | 2 | (2.7x) | 60 | (3.7x) | 9 | (8x) | 19
2 | O=C(NO)c1cnc(NCc2ccccn2)nc1 [Compound 108] | 5 | (42.1x) | 219 | (60.3x) | 313 | (68.3x) | 355
3 | O=C(NO)c1cnc(NC2(Cc3ccccc3)CC2)nc1 [Compound 109] | 4 | (79.5x) | 324 | (94.3x) | 385 | (206.7x) | 843
4 | CC1(Nc2ncc(C(=O)NO)cn2)CCCCC1 [Compound 110] | 41 | (34.5x) | 1410 | (39.9x) | 1630 | (84.7x) | 3460
5 | O=C(NO)c1cnc(NC2c3ccccc3-c3ccccc32)nc1 [Compound 111] | 19 | (48x) | 911 | (40.5x) | 767 | (70x) | 1330
6 | COc1ccc(C2(Nc3ncc(C(=O)NO)cn3)CCCCC2)cc1 [Compound 122] | 20 | (44.8x) | 893 | (45x) | 898 | (197.8x) | 3940
7 | O=C(NO)c1cnc(NC2(c3ccc(F)cc3F)CC2)nc1 [Compound 123] | 3 | (4.8x) | 13 | (4.3x) | 12 | (9.6x) | 26
8 | O=C(NO)c1cnc(NC2(c3c(F)cccc3F)CC2)nc1 [Compound 124] | 1 | (3.6x) | 5 | (3.9x) | 6 | (5.9x) | 8
9 | O=C(NO)c1cnc(NC2(c3cccc(OC(F)(F)F)c3)CC2)nc1 [Compound 125] | 2 | (8.7x) | 18 | (9x) | 19 | (27.1x) | 57
10 | O=C(NO)c1cnc(NC2(c3cc(C(F)(F)F)ccc3F)CC2)nc1 [Compound 126] | 2 | (3.2x) | 7 | (3.9x) | 9 | (9.8x) | 22
11 | O=C(NO)c1cnc(NC2(c3ccc4c(c3)OCO4)CC2)nc1 [Compound 128] | 2 | (8.1x) | 16 | (8.9x) | 17 | (24.8x) | 49
12 | COc1cc(OC)cc(C2(Nc3ncc(C(=O)NO)cn3)CC2)c1 [Compound 129] | 3 | (12.7x) | 43 | (15.4x) | 52 | (36.6x) | 124
13 | O=C(NO)c1cnc(NC2(c3ccccc3)CCC2)nc1 [Compound 130] | 3 | (43.3x) | 140 | (48.9x) | 159 | (160.9x) | 521
14 | O=C(NO)c1cnc(NC2(c3cc(F)cc(F)c3)CC2)nc1 [Compound 132] | 4 | (24.4x) | 95 | (24.4x) | 96 | (80.8x) | 316
15 | COc1ccccc1C1(Nc2ncc(C(=O)NO)cn2)CC1 [Compound 133] | 3 | (188x) | 594 | (152.9x) | 483 | (229.8x) | 727
16 | O=C(NO)c1cnc(NC2(c3ccc(C(F)(F)F)cc3)CC2)nc1 [Compound 135] | 7 | (22.4x) | 149 | (17.7x) | 118 | (51.8x) | 344
17 | O=C(NO)c1cnc(NC2(c3ccc(C(F)(F)F)c(F)c3)CC2)nc1 [Compound 137] | 4 | (7.1x) | 27 | (5.5x) | 21 | (18.5x) | 70
18 | COc1ccc(C2(Nc3ncc(C(=O)NO)cn3)CC2)cc1OC [Compound 138] | 8 | (6.2x) | 50 | (6x) | 49 | (13.9x) | 113
19 | COc1ccc(Cl)cc1C1(Nc2ncc(C(=O)NO)cn2)CC1 [Compound 139] | 4 | (90.9x) | 386 | (112.8x) | 479 | (184x) | 782
20 | O=C(NO)c1cnc(NC2(c3ccc(F)c(F)c3)CC2)nc1 [Compound 140] | 7 | (8x) | 55 | (9x) | 62 | (18.5x) | 128
21 | Cc1cc(C2(Nc3ncc(C(=O)NO)cn3)CC2)ccc1F [Compound 142] | 6 | (3x) | 17 | (4x) | 23 | (11x) | 64
22 | O=C(NO)c1cnc(NC2(c3cccc(F)c3F)CC2)nc1 [Compound 143] | 4 | (3.4x) | 12 | (5x) | 17 | (8.4x) | 29
23 | O=C(NO)c1cnc(NC2(c3ccc(F)cc3Cl)CC2)nc1 [Compound 144] | 3 | (7.9x) | 25 | (10.8x) | 34 | (18.3x) | 58
24 | O=C(NO)c1cnc(NC2(c3cc(C(F)(F)F)cc(C(F)(F)F)c3)CC2)nc1 [Compound 145] | 6 | (18.1x) | 104 | (23.5x) | 135 | (66.6x) | 384
25 | Cc1cc(C(F)(F)F)cc(C2(Nc3ncc(C(=O)NO)cn3)CC2)c1 [Compound 147] | 3 | (18.2x) | 64 | (20.9x) | 73 | (54x) | 189
26 | O=C(NO)c1cnc(NC2(c3ccc(F)cc3)CCCC2)nc1 [Compound 148] | 3 | (182.9x) | 583 | (193.1x) | 615 | (677.2x) | 2160
27 | O=C(NO)c1cnc(NC2(c3cccc(F)c3)CCOCC2)nc1 [Compound 149] | 4 | (80.1x) | 339 | (78x) | 330 | (312.9x) | 1320
28 | O=C(NO)c1cnc(NC2(c3ccc(F)cc3)CCOCC2)nc1 [Compound 150] | 5 | (66.1x) | 320 | (68.4x) | 330 | (367.7x) | 1780
29 | O=C(NO)c1cnc(NC2(c3cccc(F)c3)CCCC2)nc1 [Compound 151] | 3 | (176.6x) | 584 | (143.8x) | 476 | (414.9x) | 1370
30 | COc1ccc(C2(Nc3ncc(C(=O)NO)cn3)CCCC2)cc1 [Compound 152] | 4 | (11.4x) | 248 | (10.1x) | 220 | (29.9x) | 649
